The values below come from patent publication US20130302311A1, “EMERGENCY INTERVENTIONS OF ACTIVE CHARCOAL WITH DABIGATRAN ETEXILATE OVERDOSING” (BOEHRINGER INGELHEIM INTERNATIONAL GMBH, priority 2009, published 2013).

A short description of series [1]: Binding of dabigatran etexilate to activated charcoal in water (simulated stomach fluid), HPLC. The format is physicochemical. Conditions: for dabigatran etexilate level recovered by HPLC: untreated suspension (no charcoal), filtered. As for the experimental part: In these experiments, binding of dabigatran etexilate to active charcoal in water simulates recent ingestion (2-5, preferably 2-3 hrs) of large amounts of dabigatran etexilate in the stomach fluid. Binding of dabigatran to active charcoal in plasma simulates situations where dabigatran was absorbed after ingestion and present in high concentrations in plasma. The contents of 5, 10 and 20 capsules (150 mg/capsule) of dabigatran etexilate were suspended in 100 ml water (approx. stomach volume, pH 2.7, 2.5 and 2.4, respectively). Each suspension was divided in half. To one portion a freshly prepared activated charcoal suspension (125 mg/ml, Ultracarbon®, Merck) was added. Both suspensions (with and without charcoal) were filtered and dabigatran etexilate concentrations were assessed via HPLC.

Series [2] in a line: Binding of dabigatran to active charcoal in plasma, LC-MS/MS. Format: physicochemical. Conditions: for dabigatran plasma level (mean±SD): untreated plasma (no charcoal). As for the experimental part: In these experiments, binding of dabigatran etexilate to active charcoal in water simulates recent ingestion (2-5, preferably 2-3 hrs) of large amounts of dabigatran etexilate in the stomach fluid. Binding of dabigatran to active charcoal in plasma simulates situations where dabigatran was absorbed after ingestion and present in high concentrations in plasma. In the plasma experiments, dabigatran was added to a plasma pool at supra-therapeutic concentrations of 470 and 940 ng/ml. The sample was then split, and active charcoal was added to half at the manufacturer's specified concentration (125 mg/ml), or 1:11 dilution of this. Dabigatran plasma levels were measured by a validated LC-MS/MS method.

Each structure is given as a SMILES string.

On to `CCCCCCOC(=O)NC(=N)c1ccc(NCc2nc3cc(C(=O)N(CCC(=O)OCC)c4ccccn4)ccc3n2C)cc1` [dabigatran etexilate], for which the “dabigatran etexilate peak (HPLC) in charcoal-treated suspensions” value in series [1] (activated charcoal suspension (125 mg/ml, Ultracarbon) added, all three tested concentrations) is reported as “no longer detectable”. For the same compound, in series [1] (activated charcoal suspension (125 mg/ml, Ultracarbon), all three tested concentrations), the “dabigatran etexilate adsorbed by the activated charcoal” value is recorded as > 99.9%. Further, the “dabigatran etexilate level recovered by HPLC” value in series [1] (contents of 5 capsules (150 mg/capsule) in 100 ml water, pH 2.7) is 8.3 mg/mL; in series [1] (contents of 10 capsules (150 mg/capsule) in 100 ml water, pH 2.5), 15.6 mg/mL; in series [1] (contents of 20 capsules (150 mg/capsule) in 100 ml water, pH 2.4), 29.6 mg/mL.
Turning to `Cn1c(CNc2ccc(C(=N)N)cc2)nc2cc(C(=O)N(CCC(=O)O)c3ccccn3)ccc21` [dabigatran], in series [2] (activated charcoal at 125 mg/ml or 1:11 dilution, dabigatran added at 470 and 940 ng/ml, close to or below lower limit of quantification), the “dabigatran plasma level after addition of activated charcoal” value was < 1.01 ng/mL. The entries for the “dabigatran plasma level (mean±SD)” value in series [2] (dabigatran added at 470 ng/ml) and in series [2] (dabigatran added at 940 ng/ml) were 394 ± 19.4 ng/mL and 824 ± 39.3 ng/mL, respectively.
